The text below walks through data of ChEMBL document CHEMBL3758163, “Extended structure-activity study of thienopyrimidine-based EGFR inhibitors with evaluation of drug-like properties” (Eur J Med Chem, 2016).

In data set [1] the target is Epidermal growth factor receptor (Homo sapiens, UniProt P00533). As to the kind of experiment: Inhibition of EGFR (unknown origin) by Z -LYTE assay.
Data set [2] can be described thus: Intrinsic clearance in human liver microsomes at 3 uM by LC-MS/MS analysis. The class given is ADME. The following applies: read-out: CLH.
Data set [3] can be described thus: Aqueous solubility of compound in 0.01 M PBS buffer at pH 7.4 after 2 hrs by turbidimetric assay. The class given is physicochemical.
Data set [4] is described as follows: Half-life in human liver microsomes at 3 uM by LC-MS/MS analysis. The class given is ADME. (Liver microsomes are a subcellular fraction often used to study metabolism.)
Data set [5] in a line: Toxicity in zebrafish embryo assessed as survival for 3.5 days. It counts as organism-based, Danio rerio. To be noted: in vivo.
For data set [6], the species on record is Danio rerio. Description: Toxicity in zebrafish embryo assessed mortality measured for 24 hrs. It counts as organism-based. The following applies: in vivo.
For data set [7], the species on record is Danio rerio. As to the kind of experiment: Toxicity in zebrafish embryo assessed as effect on morphology at <12.5 uM. It counts as organism-based. The following applies: in vivo.
Another data set in a line: in vitro. The following applies: human, Caco-2.
Data set [8] is described as follows: Toxicity in zebrafish embryo assessed as morphological defects for 3.5 days. The class given is organism-based, Danio rerio.
For data set [9], the species on record is Danio rerio. As to the kind of experiment: Toxicity in zebrafish embryo assessed mortality after 50 to 70 hrs. The class given is organism-based. To be noted: in vivo.
The subject of data set [10] is Danio rerio. Description: Toxicity in zebrafish embryo assessed as cardiac oedema. To be noted: in vivo. It counts as organism-based.
Data set [11] is filed under the species Danio rerio. As to the kind of experiment: Toxicity in zebrafish embryo assessed as blood circulation defects. The following applies: in vivo. The class given is organism-based.
Data set [12] is filed under the species Danio rerio. Description: Toxicity in zebrafish embryo assessed as kinked tail. It counts as organism-based. To be noted: in vivo.

≈ marks a conversion by molar mass, not a printed value.

Chain of Epidermal growth factor receptor (P00533 whole entry): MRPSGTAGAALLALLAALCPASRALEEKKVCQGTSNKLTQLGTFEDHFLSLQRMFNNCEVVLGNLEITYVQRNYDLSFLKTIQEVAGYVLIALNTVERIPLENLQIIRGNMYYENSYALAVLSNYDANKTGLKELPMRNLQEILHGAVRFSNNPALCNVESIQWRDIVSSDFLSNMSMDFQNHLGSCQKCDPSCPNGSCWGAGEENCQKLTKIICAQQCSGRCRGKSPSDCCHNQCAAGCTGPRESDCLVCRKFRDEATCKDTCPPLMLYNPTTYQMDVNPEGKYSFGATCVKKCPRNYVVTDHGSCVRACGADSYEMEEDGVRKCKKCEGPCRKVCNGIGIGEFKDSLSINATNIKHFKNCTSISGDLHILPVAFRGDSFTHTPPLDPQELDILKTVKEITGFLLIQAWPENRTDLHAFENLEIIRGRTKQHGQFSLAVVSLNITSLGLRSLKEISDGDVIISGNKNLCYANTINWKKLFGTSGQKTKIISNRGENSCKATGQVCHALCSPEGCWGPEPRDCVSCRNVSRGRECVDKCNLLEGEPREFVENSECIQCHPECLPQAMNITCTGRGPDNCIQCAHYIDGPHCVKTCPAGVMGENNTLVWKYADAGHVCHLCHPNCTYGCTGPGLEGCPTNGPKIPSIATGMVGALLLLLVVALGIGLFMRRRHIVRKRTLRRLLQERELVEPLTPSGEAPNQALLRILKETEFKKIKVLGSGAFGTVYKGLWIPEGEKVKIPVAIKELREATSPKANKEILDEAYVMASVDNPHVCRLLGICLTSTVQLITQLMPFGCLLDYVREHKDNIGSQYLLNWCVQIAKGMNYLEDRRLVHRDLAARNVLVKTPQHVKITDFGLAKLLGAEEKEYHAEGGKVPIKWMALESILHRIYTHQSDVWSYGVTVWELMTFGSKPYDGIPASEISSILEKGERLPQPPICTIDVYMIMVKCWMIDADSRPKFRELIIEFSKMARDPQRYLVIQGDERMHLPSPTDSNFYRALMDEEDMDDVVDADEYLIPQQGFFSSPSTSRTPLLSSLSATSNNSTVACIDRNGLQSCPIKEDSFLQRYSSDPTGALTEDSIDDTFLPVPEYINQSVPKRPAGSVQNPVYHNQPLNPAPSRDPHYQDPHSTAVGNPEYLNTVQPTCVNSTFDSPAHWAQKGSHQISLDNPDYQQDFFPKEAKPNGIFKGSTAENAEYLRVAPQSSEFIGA
Description for in vitro: Efflux ratio of permeability from basolateral to apical side over apical to basolateral side in human Caco2 cells at 10 uM by LC-MS/MS analysis

As for `OCc1ccc(-c2cc3c(NCc4ccccc4)ncnc3s2)cc1`, in [1], it took 48 nM to reach half-maximal inhibition (IC50). That is a double-digit nanomolar value.
Regarding `C[C@@H](Nc1ncnc2sc(-c3ccc(C(=O)O)cc3)cc12)c1ccccc1`, the IC50 (usually the concentration that inhibits the measured activity by half) in data set [1] turned out to be 19 nM.
`COC(=O)c1cc(OC)c(-c2cc3c(N[C@H](C)c4ccccc4)ncnc3s2)c(OC)c1`: the midpoint of inhibition in [1], the IC50, lay at 4 nM.
Turning to `COC(=O)c1cccc(-c2cc3c(N[C@H](C)c4ccccc4)ncnc3s2)c1OC`, in data set [1], the IC50 turned out to be 9 nM.
The same measure, in the same setting: the figure for `COc1ccc(C=O)cc1-c1cc2c(N[C@H](C)c3ccccc3)ncnc2s1` is 3 nM.
For `OCc1cccc(-c2cc3c(N[C@H](CO)c4ccccc4)ncnc3s2)c1`, the IC50 in [1] is 3 nM.
For the molecule `C[C@@H](Nc1ncnc2sc(-c3ccc(C=O)cc3F)cc12)c1ccccc1`, 59 nM corresponded to half-maximal inhibition in data set [1] (IC50).
In data set [1], `COc1cc(C(=O)NCCN(C)C)cc(OC)c1-c1cc2c(N[C@H](C)c3ccccc3)ncnc2s1` showed an IC50 of 0.4 nM. In addition, the microsomal CLint at 3 µM in [2] is 9.7 µL/min/mg. Further, in data set [3], the kinetic solubility (in general, solubility judged after dilution from a stock solution rather than from solid) at 2 h was found to be 65 µM (≈ 32.9 µg/mL). Besides, the half-life (in general, the time needed for the level to fall by half in the phase considered) at 3 µM in [4] amounted to 2.37 h. The LC50 – broadly, the concentration that kills 50% of the test population – at 84 h in [5] came to 15000 nM. Also, the figures for the Activity entry in the data set filed under Danio rerio [6] and in the data set filed under Danio rerio [7] were “Toxic” and “Non-toxic”, respectively. For the same molecule, the efflux ratio (as a rule, a quotient of directional permeabilities that is used to spot active efflux) at 10 µM in the data set “in vitro” worked out at 40.
With `COc1c(C(=O)NCCN(C)C)cccc1-c1cc2c(N[C@H](C)c3ccccc3)ncnc2s1`, in data set [1], inhibition was half-maximal at 3 nM (IC50).
`COc1cc(C=O)ccc1-c1cc2c(Nc3ccc(F)c(Cl)c3)ncnc2s1` came in with a 50% inhibitory concentration (IC50) in [1] of 5 nM. Compared with the last molecule, the IC50 is about 1.7-fold higher.
Same read-out and setting: next, `C[C@@H](Nc1ncnc2sc(-c3ccc(CO)cc3F)cc12)c1ccccc1`: 13 nM.
The same measure, in the same setting: next, `C[C@@H](Nc1ncnc2sc(-c3ccc(S(C)(=O)=O)cc3)cc12)c1ccccc1`: 41 nM; `COc1cc(C=O)ccc1-c1cc2c(NCc3ccccc3)ncnc2s1`: 6 nM.
The molecule `COc1cc(C(=O)NCCN(C)C)ccc1-c1cc2c(N[C@H](C)c3ccccc3)ncnc2s1` returned an IC50 in [1] of 0.5 nM. The microsomal CLint at 3 µM in data set [2] turned out to be 6.1 µL/min/mg. The molecule also had a kinetic solubility at 2 h in [3] above 100 µM. The half-life at 3 µM in data set [4] turned out to be 3.78 h. For the same molecule, the efflux ratio at 10 µM in “in vitro” is 18.
In data set [1], `COC(=O)c1ccc(-c2cc3c(N[C@H](C)c4ccccc4)ncnc3s2)c(OC)c1` came in with an IC50 of 20 nM.
On the same count and under the same terms, the figure for `COc1cc(F)ccc1-c1cc2c(N[C@H](C)c3ccccc3)ncnc2s1` is 6 nM; for `C[C@@H](Nc1ncnc2sc(-c3cccc(C(=O)O)c3)cc12)c1ccccc1` it is 8 nM.
For the molecule `COc1c(C=O)cccc1-c1cc2c(N[C@H](C)c3ccccc3)ncnc2s1`, half-maximal inhibition in [1] (IC50) required 21 nM.
Same read-out and setting: next, `COC(=O)c1ccc(OC)c(-c2cc3c(N[C@H](C)c4ccccc4)ncnc3s2)c1`: 7 nM; `COc1cc(C(N)=O)ccc1-c1cc2c(N[C@H](C)c3ccccc3)ncnc2s1`: 2 nM; `COc1c(CO)cccc1-c1cc2c(N[C@H](C)c3ccccc3)ncnc2s1`: 1.5 nM.
Same read-out and setting: next, `C[C@@H](Nc1ncnc2sc(-c3cccc(C(N)=O)c3)cc12)c1ccccc1`: 5 nM; `C[C@@H](Nc1ncnc2sc(-c3ccc(C(N)=O)cc3)cc12)c1ccccc1`: 7 nM.
With `COc1cccc(OC)c1-c1cc2c(N[C@H](CO)c3ccccc3)ncnc2s1`, the midpoint of inhibition in [1], the IC50, lay at 0.9 nM. Also, the microsomal CLint at 3 µM in [2] worked out at 41 µL/min/mg. In [4], this molecule gave a half-life at 3 µM of 0.567 h. For the same molecule, the LC50 at 84 h in data set [5] stood at 18000 nM. Further, the EC50 (commonly the midpoint of the concentration-response curve) at 3.5 days in [8] is 12000 nM. Moreover, the Activity result in the data set filed under Danio rerio [9], with Danio rerio [10], in the data set filed under Danio rerio [11] and in the data set listed under Danio rerio [12] was “Toxic” each time.
As for `C[C@@H](Nc1ncnc2sc(-c3cccc(C=O)c3)cc12)c1ccccc1`, the IC50 in data set [1] was 6 nM. In other words, the single-digit nanomolar range.
For `C[C@@H](Nc1ncnc2sc(-c3cccc(C(=O)NCCN(C)C)c3)cc12)c1ccccc1`, 0.9 nM corresponded to half-maximal inhibition in data set [1] (IC50). In data set [3], this molecule came in with a kinetic solubility at 2 h above 100 µM. In data set [4], this molecule yielded a half-life at 3 µM of 1.58 h. Also, in the data set “in vitro”, the efflux ratio at 10 µM stood at 8.9.
As to `COc1cccc(OC)c1-c1cc2c(N[C@H](C)c3ccccc3)ncnc2s1`, half-maximal inhibition in data set [1] (IC50) was put at 2 nM.
Same read-out and setting: next, `OC[C@@H](Nc1ncnc2sc(-c3ccccc3)cc12)c1ccccc1`: 9 nM.
`COc1cccc(-c2cc3c(N[C@H](C)c4ccccc4)ncnc3s2)c1OC` had an IC50 in data set [1] of 13 nM.
Take `C[C@@H](Nc1ncnc2sc(-c3cccc(S(C)(=O)=O)c3)cc12)c1ccccc1`: the midpoint of inhibition in data set [1], the IC50, lay at 26 nM. Compared with the last molecule, the IC50 is about 2-fold higher.
Take `COc1cc(CO)ccc1-c1cc2c(NCc3ccccc3)ncnc2s1`: the half-maximal inhibitory concentration (IC50) in [1] is 5 nM.
In data set [1], `OCc1ccc(-c2cc3c(Nc4ccccc4)ncnc3s2)cc1` showed an IC50 of 21 nM.
On to `COc1ccc(CO)cc1-c1cc2c(N[C@H](C)c3ccccc3)ncnc2s1`, for which the concentration for half-maximal inhibition (IC50) in [1] was found to be 5 nM. This IC50 is about 4.2-fold lower than that of the molecule before.
